Data from patent publication US4784992A, “Phosphorylalkanolamide derivatives of L-carnitine and pharmaceutical compositions containing same” (Sigma-Tau Industrie Farmaceutiche Riunite S.p.A., priority 1986, dated 1988).

Assays:
[1] = system: erucic acid-induced myocardial steatosis; test: erucic acid-induced myocardial steatosis model in the rat (erucic acid-rich rape oil diet); assay type: in vivo, rat (male Wistar); settings: for Cholesterol / ATP: n=6; for Cholesterol: controls 32.7 ±11.95; for ATP: controls 34.2 ±8.73
Text: (§1) A myocardial steatosis model, in which an L-carnitine positive effect was already described, was used in the rat. The steatosis was induced by adding, for five (5) consecutive days, erucic acid-rich rape oil in the rats' normal daily diet, according to the method described by Branca et al. (Internat., Vit. Nutr. Res., 47, 162-166, 1977). Trial-groups of six (6) male Wistar rats, weighing from 190 g to 220 g, were used.
These effects were statistically significant with Student's t test.

[2] = system: lipid metabolism; test: restoring to normal any imbalance in the lipid metabolism / summary of the pharmacological trials; assay type: in vivo
Text: as §1
The model of erucic acid-induced myocardial steatosis is used to compare the effect of the 14 day-administration of 250 and 125 mg/kg e.p. of L-carnitine with that of L-carnitine phosphorylethanolamide at the same doses for the same study period.
Moreover other tests were carried out using a model of olive-oil induced hyperlipemia in the rat. L-carnitine was administered at 250 and 125 mg/kg endoperitoneally for 14 days, as was L-carnitine phosphorylethanolamide at 250 and 125 mg/kg endoperitoneally for 14 days. The following parameters were evaluated:
Moreover it is efficacious in re-establishing the balance between fatty acids' oxidation and uptake, and in stimulating acetyl-CoA's oxidation in Kreb's cycle. Important to underline is that to these actions, another, of a more ubiquitary nature, must be added. […]

[3] = solubility and appearance of the inner salt; assay type: physicochemical
Text: A 20% aqueous solution of the calcium salt of L-carnitine phosphorylethanolamide was passed through AMBERLITE IR 120 activated with a 10% solution of hydrochloric acid. The eluate was neutralized with AMBERLITE IR 45 resin. The solution was then concentrated to dryness under vacuum. A white product crystallized which was taken up with warm ethanol.

[4] = acute toxicity in the mouse (mortality curve and LD50); assay type: in vivo; settings: in vivo, ip; mouse, e.p.; 7 days observation
Description: (§2) The effects of L-carnitine phosphorylethanolamide to Irwin's test in the mouse and acute toxicity after endoperitoneal administration of the substance, always in the mouse, were also evaluated.

[5] = system: mouse; test: as above; assay type: in vivo; settings: 4 M + 4 F, 7 days observation
Description: as §2

[6] = system: normal mouse's behaviour; test: Irwin's test in the mouse (normal mouse's behaviour); assay type: in vivo; settings: 1000 mg/kg e.p.; 4 M + 4 F
Description: as §2

[7] = 250 mg/kg endoperitoneally, 5 days, statistically significant (Student's t test)
[8] = Table 1, 250 mg/kg e.p., 5 days, P < 0.001

SMILES: C[N+](C)(C)CC(O)CC(=O)NCCOP(=O)([O-])O [L-carnitine phosphorylethanolamide]
- ATP values [1, 7]: brought back to normal the ATP values
- accumulation of triglycerides in the myocardium [1, 7]: reduced the accumulation of triglycerides in the myocardium
- cholesterol levels [1, 7]: lowered the cholesterol levels
- ATP, change vs controls [1, 8]: +76.9%
- Triglycerides, change vs controls [1, 8]: -47.9%
- Cholesterol, change vs controls ([1]; Table 1, 250 mg/kg e.p., 5 days, P < 0.01): -60.9%
- Cholesterol ([1]; Table 1, 250 mg/kg e.p., 5 days, spread of treated group ±7.16 on next line, P < 0.01): 12.8 mg/g of fresh tissue
- ATP ([1]; Table 1, 250 mg/kg e.p., 5 days, spread of treated group ±5.78 on next line, P < 0.001): 60.5 nM/g proteines
- normalization of myocardial hypertriglyceridemia and hyperlipemia, induced by erucic acid treatment [2]: extremely active
- re-establishing the balance between fatty acids' oxidation and uptake, and stimulating acetyl-CoA's oxidation in Kreb's cycle [2]: efficacious
- solubility in most of the common organic solvents ([3]; common organic solvents): insoluble in most of the common organic solvents
- solubility ([3]; water and methanol at room temperature, warm ethanol): Soluble in water and methanol at room temperature and in warm ethanol
- hygroscopicity ([3]; white, amorphous powder, inner salt): hygroscopic
- LD50 at 168 h [4]: > 8000 mg/kg
- N° of dead animals ([5]; 1000 mg/kg e.p.): 0
- N° of dead animals ([5]; 2000 mg/kg e.p.): 0
- N° of dead animals ([5]; 4000 mg/kg e.p.): 0
- N° of dead animals ([5]; 8000 mg/kg e.p.): 0
- Main effects observed [6]: apparently normal

SMILES: C[N+](C)(C)C[C@H](O)CC(=O)[O-] [L-carnitine]
- Triglycerides, change vs controls ([1]; Table 2, 250 mg/kg endoperitoneally for 5 days, P < 0.001): -60.1%
- Cholesterol, change vs controls ([1]; Table 2, 250 mg/kg endoperitoneally for 5 days, n.s.): -34.5%
- Cholesterol ([1]; Table 2, 250 mg/kg endoperitoneally for 5 days, spread of treated group ±7.01 on next line, n.s.): 24.7 mg/g of fresh tissue
- ATP ([1]; Table 2, 250 mg/kg endoperitoneally for 5 days, spread of treated group ±20.28 on next line, P < 0.05): 57.3 nM/g proteines
